Data published in US6495591B1, “Fungal efflux pump inhibitors” (Essential Therapeutics, Inc., priority 1997, dated 2002).
Like-named read-outs stand apart in the source and are kept apart here.

Columns and labels:
[1] = test system: P388 cell line (mouse leukemia), adriamycin sensitive; test: Adriamycin cytotoxicity (MTT), P-glycoprotein assay
Protocol: (§1) The inhibitory effect of milbemycin β1 against the mammalian P-glycoprotein multi-drug resistant pump was determined following the procedure described by Tsuruo et al (Cancer Res., 1981. 41:1967-1972) with slight modification. The cytotoxicity of antitumor agent, adriamycin, against adriamycin sensitive P388 cell line (mouse leukemia) and its adriamycin resistant subline line (P388/ADM) was measured in the presence of various concentrations of milbemycin β1. […] The assay is performed in serum-free media containing 20 μM of 2-mercaptoethanol. Chemosensitivity to adriamycin was determined […] based on the reduction of MTT (3-[4,5-dimethylthiazol-2-yl]-2,5-diphenyltetrazolium bromide) into blue formazan.

[2] = test system: P388/ADM, adriamycin resistant subline; test: as above
Protocol: as §1

[3] = test system: mammalian P-glycoprotein multi-drug resistant pump; type: cell-based, mouse; details: no inhibitor (None)
Protocol: as §1

[4] = target: pCDRI (ABC) efflux pump in S. cerevisiae YEM-1 (Candida albicans, UniProt P43071); test: cell-based; type: cell-based, C. albicans; details: for FEPIhalf (concentration needed to reduce activity of efflux pump by 50%): YEM-1 pCDRI, fluconazole fixed at FLUhalf 5.6
[5] = target: pCDR2 (ABC) efflux pump in S. cerevisiae YEM-37 (Candida albicans, UniProt P78595); test: cell-based; type: cell-based, C. albicans; details: for FEPIhalf (concentration needed to reduce activity of efflux pump by 50%): YEM-37 pCDR2, fluconazole fixed at FLUhalf 1
[6] = target: pCgCDR (ABC) efflux pump in S. cerevisiae YEM-39 (Candida glabrata, UniProt Q6FK23); test: cell-based; type: cell-based, C. glabrata; details: for FEPIhalf (concentration needed to reduce activity of efflux pump by 50%): YEM-39 pCgCDR, fluconazole fixed at FLUhalf 4
[7] = target: pBEN (MF) efflux pump in S. cerevisiae YEM-2 (Candida albicans, UniProt P28873); test: cell-based; type: cell-based, C. albicans; details: for FEPIhalf (concentration needed to reduce activity of efflux pump by 50%): YEM-2 pBEN, fluconazole fixed at FLUhalf 5.6
[8] = target: pFLU (MF) efflux pump in S. cerevisiae YEM-38 (Candida albicans, UniProt G1UB37); test: cell-based; type: cell-based, C. albicans; details: for FEPIhalf (concentration needed to reduce activity of efflux pump by 50%): YEM-38 pFLU, fluconazole fixed at FLUhalf 2
[9] = test system: pCgBEN (MF) efflux pump in S. cerevisiae YEM-40; type: cell-based, C. glabrata
[10] = test system: YEM 13 C. albicans BEN up; test: microbe, parasite or virus in culture; type: cell-based; details: YEM 13, 24 hrs, 80% inhibition; for MIC of compound in the presence of fluconazole (+): 1/8 × MIC of fluconazole
[11] = test system: YEM 15 C. albicans, CDR1CDR2 up; test: microbe, parasite or virus in culture; type: cell-based; details: YEM 15, 24 hrs, 80% inhibition; for MIC of compound in the presence of fluconazole (+): 1/8 × MIC of fluconazole
YEM 53 C. krusei = test: FEPI MIC with/without 1/8 fluconazole MIC at 24 hrs (Table 11); type: cell-based
[12] = test system: YEM 17 C. glabrata, CgCDR up; type: cell-based; details: 24 hrs, 80% inhibition; for MIC of compound in the presence of fluconazole (+): 1/8 × MIC of fluconazole
YEM 51 C. glabrata wt = test: FEPI MIC with/without 1/8 fluconazole MIC at 24 hrs (Table 11); type: cell-based
YEM 30 C. albicans wt = test: as above; type: cell-based
[13] = test system: YEM 24 C. albicans ΔCDR1, ΔCDR2; test: microbe, parasite or virus in culture; type: cell-based; details: YEM 24, 24 hrs, 80% inhibition; for MIC of compound in the presence of fluconazole (+): 1/8 × MIC of fluconazole
[14] = test system: YEM 27 C. albicans ΔCDR1ΔCDR2 ΔBENΔFLU1; test: microbe, parasite or virus in culture; type: cell-based; details: YEM 27, 24 hrs, 80% inhibition; for MIC of compound in the presence of fluconazole (+): 1/8 × MIC of fluconazole
Aspergillus fumigatus = test: FEPI MICs in combination with 1/4 the azole's MIC (Table 12); type: cell-based; design: FEPI MIC (alone): unit not given here; details: for FEPI MIC with itraconazole, 60% Inh / FEPI MIC with itraconazole, 80% Inh: itraconazole 0.063 μg/ml (1/4 MIC); for FEPI MIC with ketoconazole, 60% Inh / FEPI MIC with ketoconazole, 80% Inh: ketoconazole 4 μg/ml (1/4 MIC); for FEPI MIC (alone): no azole, 35° C., CM Broth
Protocol: The combinations were tested against a series of Candida strain with known expression of efflux pumps or with complete deletion of all known pumps and Aspergillus fumigatus. Results are reported as minimum inhibitory concentration (MIC) of […] in the presence or absence of […]. A total of 27 distinct milbemycins were studied.

[15] = YEM 53, 1/8 × MIC of fluconazole, 24 hrs, 80% inhibition
[16] = YEM 51, 1/8 × MIC of fluconazole, 24 hrs, 80% inhibition
[17] = YEM 30, 1/8 × MIC of fluconazole, 24 hrs, 80% inhibition
[18] = fluconazole 32 μg/ml (1/4 MIC), 60% inhibition
[19] = fluconazole 32 μg/ml (1/4 MIC), 80% inhibition

pCDR2 (ABC) efflux pump in S. cerevisiae YEM-37, sequence (P78595 whole entry): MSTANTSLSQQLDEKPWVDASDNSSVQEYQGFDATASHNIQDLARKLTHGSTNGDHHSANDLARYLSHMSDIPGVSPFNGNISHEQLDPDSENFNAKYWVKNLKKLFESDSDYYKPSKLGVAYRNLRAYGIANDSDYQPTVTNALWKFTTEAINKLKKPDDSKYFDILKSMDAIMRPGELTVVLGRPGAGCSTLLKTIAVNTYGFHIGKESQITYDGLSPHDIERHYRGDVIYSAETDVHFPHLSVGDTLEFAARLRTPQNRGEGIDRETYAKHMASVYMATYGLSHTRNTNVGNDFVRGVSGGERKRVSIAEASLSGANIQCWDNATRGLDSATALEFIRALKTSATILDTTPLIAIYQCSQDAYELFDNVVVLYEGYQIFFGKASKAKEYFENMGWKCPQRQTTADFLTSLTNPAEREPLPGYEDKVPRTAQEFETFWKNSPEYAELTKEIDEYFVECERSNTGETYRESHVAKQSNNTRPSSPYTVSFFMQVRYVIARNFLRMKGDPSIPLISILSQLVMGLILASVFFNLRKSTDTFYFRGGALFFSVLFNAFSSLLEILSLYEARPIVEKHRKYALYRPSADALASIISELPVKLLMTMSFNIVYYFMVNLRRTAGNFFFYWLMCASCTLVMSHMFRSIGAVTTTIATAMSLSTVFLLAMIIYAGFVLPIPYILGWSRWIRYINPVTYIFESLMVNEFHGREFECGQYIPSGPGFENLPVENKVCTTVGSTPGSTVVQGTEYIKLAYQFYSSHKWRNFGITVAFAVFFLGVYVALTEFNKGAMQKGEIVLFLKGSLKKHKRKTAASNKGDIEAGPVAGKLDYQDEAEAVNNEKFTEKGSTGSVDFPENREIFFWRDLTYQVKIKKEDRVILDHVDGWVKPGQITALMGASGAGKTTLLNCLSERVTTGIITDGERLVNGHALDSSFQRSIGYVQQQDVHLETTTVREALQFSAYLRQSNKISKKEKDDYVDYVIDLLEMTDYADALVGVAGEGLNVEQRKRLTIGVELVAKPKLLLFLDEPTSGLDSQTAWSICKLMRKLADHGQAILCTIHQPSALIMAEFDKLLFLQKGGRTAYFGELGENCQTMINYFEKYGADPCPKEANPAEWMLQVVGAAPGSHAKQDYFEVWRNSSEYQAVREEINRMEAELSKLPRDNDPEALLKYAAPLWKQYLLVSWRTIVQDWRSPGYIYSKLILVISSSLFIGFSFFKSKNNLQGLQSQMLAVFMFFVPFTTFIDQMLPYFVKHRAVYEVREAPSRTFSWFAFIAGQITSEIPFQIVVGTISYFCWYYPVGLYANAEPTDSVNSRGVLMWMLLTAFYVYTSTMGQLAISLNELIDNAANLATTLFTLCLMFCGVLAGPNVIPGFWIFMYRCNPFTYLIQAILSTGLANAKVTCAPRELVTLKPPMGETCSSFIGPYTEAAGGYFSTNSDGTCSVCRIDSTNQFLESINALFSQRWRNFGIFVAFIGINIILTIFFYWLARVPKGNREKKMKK
pFLU (MF) efflux pump in S. cerevisiae YEM-38, sequence (G1UB37 whole entry): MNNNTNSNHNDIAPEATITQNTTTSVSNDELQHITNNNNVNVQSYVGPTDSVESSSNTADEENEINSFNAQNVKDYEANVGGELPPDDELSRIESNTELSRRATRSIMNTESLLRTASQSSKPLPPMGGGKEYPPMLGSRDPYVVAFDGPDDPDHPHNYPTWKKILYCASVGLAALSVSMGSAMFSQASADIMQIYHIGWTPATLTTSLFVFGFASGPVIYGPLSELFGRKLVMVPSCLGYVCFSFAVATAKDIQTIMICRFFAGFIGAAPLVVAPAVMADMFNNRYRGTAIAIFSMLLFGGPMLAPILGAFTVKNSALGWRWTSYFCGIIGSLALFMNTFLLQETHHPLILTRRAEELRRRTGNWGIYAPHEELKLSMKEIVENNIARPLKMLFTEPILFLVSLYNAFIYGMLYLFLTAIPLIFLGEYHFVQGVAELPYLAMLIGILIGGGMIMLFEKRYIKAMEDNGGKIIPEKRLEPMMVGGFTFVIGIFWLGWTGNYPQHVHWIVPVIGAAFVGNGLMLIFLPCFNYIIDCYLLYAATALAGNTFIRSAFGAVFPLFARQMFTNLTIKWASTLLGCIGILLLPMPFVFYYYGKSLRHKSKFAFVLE
pCgCDR (ABC) efflux pump in S. cerevisiae YEM-39, sequence (Q6FK23 whole entry): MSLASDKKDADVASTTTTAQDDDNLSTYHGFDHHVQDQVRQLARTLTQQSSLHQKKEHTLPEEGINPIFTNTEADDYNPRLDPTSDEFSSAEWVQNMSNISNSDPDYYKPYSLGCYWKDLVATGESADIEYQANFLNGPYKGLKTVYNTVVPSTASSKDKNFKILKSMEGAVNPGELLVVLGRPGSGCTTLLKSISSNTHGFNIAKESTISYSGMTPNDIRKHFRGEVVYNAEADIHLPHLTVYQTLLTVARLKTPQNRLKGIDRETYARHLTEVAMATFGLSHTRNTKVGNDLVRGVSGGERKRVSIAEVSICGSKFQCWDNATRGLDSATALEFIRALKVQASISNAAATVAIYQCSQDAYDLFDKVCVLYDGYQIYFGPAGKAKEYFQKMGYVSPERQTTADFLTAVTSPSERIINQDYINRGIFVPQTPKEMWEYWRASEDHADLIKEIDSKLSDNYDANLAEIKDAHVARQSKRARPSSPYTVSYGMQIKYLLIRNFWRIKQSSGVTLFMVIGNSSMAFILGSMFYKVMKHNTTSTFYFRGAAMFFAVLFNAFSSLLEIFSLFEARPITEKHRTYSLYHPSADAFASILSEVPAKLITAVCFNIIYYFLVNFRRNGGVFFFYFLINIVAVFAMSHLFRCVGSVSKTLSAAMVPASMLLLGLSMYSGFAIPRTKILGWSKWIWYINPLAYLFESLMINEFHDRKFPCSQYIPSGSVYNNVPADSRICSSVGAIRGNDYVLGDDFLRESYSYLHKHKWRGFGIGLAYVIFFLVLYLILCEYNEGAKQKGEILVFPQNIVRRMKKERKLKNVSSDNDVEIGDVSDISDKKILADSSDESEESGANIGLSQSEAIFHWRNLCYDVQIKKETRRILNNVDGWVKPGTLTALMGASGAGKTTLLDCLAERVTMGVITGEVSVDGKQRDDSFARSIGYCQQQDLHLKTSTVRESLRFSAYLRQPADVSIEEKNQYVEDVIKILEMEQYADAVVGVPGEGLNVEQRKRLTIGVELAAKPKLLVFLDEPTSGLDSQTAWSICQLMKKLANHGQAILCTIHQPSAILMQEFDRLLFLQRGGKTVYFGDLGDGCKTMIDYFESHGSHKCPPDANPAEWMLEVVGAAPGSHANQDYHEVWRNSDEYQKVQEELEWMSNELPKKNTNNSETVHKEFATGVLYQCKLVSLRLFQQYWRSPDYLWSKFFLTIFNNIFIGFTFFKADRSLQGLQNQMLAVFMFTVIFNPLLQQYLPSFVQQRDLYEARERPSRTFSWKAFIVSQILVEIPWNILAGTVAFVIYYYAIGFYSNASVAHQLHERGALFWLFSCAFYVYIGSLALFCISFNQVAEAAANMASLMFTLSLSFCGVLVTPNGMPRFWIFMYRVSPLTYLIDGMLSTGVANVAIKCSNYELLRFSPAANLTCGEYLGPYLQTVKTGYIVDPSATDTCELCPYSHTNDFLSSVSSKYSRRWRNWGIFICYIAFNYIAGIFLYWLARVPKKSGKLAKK
pCDRI (ABC) efflux pump in S. cerevisiae YEM-1, sequence (P43071 whole entry): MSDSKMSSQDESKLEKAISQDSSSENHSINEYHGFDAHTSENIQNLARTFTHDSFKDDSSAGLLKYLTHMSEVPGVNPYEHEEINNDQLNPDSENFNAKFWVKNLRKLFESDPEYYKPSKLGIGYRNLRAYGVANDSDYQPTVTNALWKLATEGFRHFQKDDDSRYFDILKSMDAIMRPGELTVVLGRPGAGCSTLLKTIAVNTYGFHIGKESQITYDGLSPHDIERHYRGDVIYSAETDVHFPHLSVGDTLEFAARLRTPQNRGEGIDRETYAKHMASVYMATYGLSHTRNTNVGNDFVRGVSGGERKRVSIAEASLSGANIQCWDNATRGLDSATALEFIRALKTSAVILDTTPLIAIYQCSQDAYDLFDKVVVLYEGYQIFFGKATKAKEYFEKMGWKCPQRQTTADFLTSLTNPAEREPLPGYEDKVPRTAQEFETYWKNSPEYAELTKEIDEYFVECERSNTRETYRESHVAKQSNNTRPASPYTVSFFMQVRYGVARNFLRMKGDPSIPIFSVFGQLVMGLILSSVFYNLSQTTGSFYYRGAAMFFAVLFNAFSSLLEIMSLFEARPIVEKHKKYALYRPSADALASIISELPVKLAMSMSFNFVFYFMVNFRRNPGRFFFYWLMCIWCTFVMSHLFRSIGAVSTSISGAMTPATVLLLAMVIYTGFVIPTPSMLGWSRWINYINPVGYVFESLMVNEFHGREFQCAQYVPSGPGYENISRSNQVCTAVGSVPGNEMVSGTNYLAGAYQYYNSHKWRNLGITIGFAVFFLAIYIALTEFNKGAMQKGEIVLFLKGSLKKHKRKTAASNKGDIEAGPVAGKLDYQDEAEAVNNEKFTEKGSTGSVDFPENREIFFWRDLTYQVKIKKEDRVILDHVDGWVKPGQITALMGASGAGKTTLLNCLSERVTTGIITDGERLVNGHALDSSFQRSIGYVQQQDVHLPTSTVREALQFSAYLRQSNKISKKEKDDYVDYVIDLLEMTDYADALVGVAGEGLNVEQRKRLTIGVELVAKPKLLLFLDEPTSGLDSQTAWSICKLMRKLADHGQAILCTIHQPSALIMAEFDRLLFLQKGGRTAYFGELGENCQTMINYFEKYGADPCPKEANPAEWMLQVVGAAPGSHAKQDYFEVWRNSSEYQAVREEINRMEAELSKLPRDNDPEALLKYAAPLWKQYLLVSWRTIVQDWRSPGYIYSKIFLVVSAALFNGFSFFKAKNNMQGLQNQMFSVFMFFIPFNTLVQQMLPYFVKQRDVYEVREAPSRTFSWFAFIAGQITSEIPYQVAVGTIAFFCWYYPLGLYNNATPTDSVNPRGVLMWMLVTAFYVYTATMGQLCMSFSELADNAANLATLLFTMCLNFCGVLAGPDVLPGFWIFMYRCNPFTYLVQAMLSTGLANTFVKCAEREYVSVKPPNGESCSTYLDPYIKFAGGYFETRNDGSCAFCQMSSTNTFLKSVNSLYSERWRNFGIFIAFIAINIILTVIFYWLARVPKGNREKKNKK

Row | Compound | FEPIhalf (concentration needed to reduce activity of efflux pump by 50%) [4] | FEPIhalf (concentration needed to reduce activity of efflux pump by 50%) [5] | MIC of compound in the presence of fluconazole (+) [10] [µg/mL] | MIC of compound in the absence of fluconazole (−) [10] [µg/mL] | MIC of compound in the presence of fluconazole (+) [11] | MIC of compound in the absence of fluconazole (−) [11] [µg/mL] | MIC of compound in the absence of fluconazole (−) (YEM 53 C. krusei; YEM 53, 24 hrs, 80% inhibition) [µg/mL] | MIC of compound in the presence of fluconazole (+) [12] [µg/mL] | MIC of compound in the absence of fluconazole (−) [12] [µg/mL] | MIC of compound in the absence of fluconazole (−) (YEM 51 C. glabrata wt; YEM 51, 24 hrs, 80% inhibition) [µg/mL] | MIC of compound in the absence of fluconazole (−) (YEM 30 C. albicans wt; YEM 30, 24 hrs, 80% inhibition) [µg/mL] | MIC of compound in the presence of fluconazole (+) [13] [µg/mL] | MIC of compound in the absence of fluconazole (−) [13] [µg/mL] | MIC of compound in the presence of fluconazole (+) [14] [µg/mL] | MIC of compound in the absence of fluconazole (−) [14] [µg/mL] | FEPI MIC with itraconazole, 60% Inh (Aspergillus fumigatus; 60% inhibition) | FEPI MIC with itraconazole, 80% Inh (Aspergillus fumigatus; 80% inhibition) | FEPI MIC with ketoconazole, 60% Inh (Aspergillus fumigatus; 60% inhibition) | FEPI MIC with ketoconazole, 80% Inh (Aspergillus fumigatus; 80% inhibition) | FEPI MIC (alone) (Aspergillus fumigatus; 80% inhibition) | also measured
1 | COc1cccc2c1C(=O)c1c(O)c3c(c(O)c1C2=O)C[C@@](O)(C(=O)CO)C[C@@H]3O[C@H]1C[C@H](N)[C@H](O)[C@H](C)O1 [Adriamycin, adriamycin, reference compound] |  |  |  |  |  |  |  |  |  |  |  |  |  |  |  |  |  |  |  |  | Adriamycin TC50, P388 [1]: 0.009 µg/mL; Adriamycin TC50, P388/ADM [2]: 2.954 µg/mL; Ratio [P388/A]/[P388] [3]: 337
2 | CCCCC(C)C(=O)OC1C(C)C(C)OC2(CC3CC(C/C=C(\C)CC(C)/C=C/C=C4\COC5C(O)C(C)=CC(C(=O)O3)C45O)O2)C1O (stereo not drawn) [Compound 8, Milbemycin α5] | 0.5 | 2 | > 64 | > 64 | 0.125 µg/mL | > 64 | > 64 | 2 | > 64 | > 64 | > 64 | > 64 | > 64 | > 64 | > 64 | 1 | 8 | ≦0.063 | ≦0.063 | >64 | FEPIhalf (concentration needed to reduce activity of efflux pump by 50%) [6]: 8; FEPIhalf (concentration needed to reduce activity of efflux pump by 50%) [7]: 16; FEPIhalf (concentration needed to reduce activity of efflux pump by 50%) [8]: >64; FEPIhalf (concentration needed to reduce activity of efflux pump by 50%) [9]: >64; MIC of compound in the presence of fluconazole (+) (YEM 53 C. krusei; [15]): 32 µg/mL; MIC of compound in the presence of fluconazole (+) (YEM 51 C. glabrata wt; [16]): 8 µg/mL; MIC of compound in the presence of fluconazole (+) (YEM 30 C. albicans wt; [17]): ≦0.03; FEPI MIC with fluconazole, 60% Inh (Aspergillus fumigatus; [18]): 1; FEPI MIC with fluconazole, 80% Inh (Aspergillus fumigatus; [19]): >64
3 | CC1=C[C@H]2C(=O)O[C@H]3C[C@@H](C/C=C(\C)C[C@@H](C)/C=C/C=C4\CO[C@H]([C@@H]1O)[C@@]42O)O[C@]1(C3)C[C@H](O)[C@H](C)[C@@H](/C(C)=C/C(C)C)O1 [Compound 15, LL-F2849α (nemedectinα)] |  |  | > 64 | > 64 | 0.5 µg/mL | > 64 | > 64 | 2 | > 64 | > 64 | > 64 | > 64 | > 64 | > 64 | > 64 | 1 | >64 | 0.25 | 0.25 | >64 | IC50 [4]: 3.26 µM; IC50 [5]: 1.63 µM; IC50 [6]: 6.53 µM; IC50 [7]: > 104 µM; IC50 [8]: > 104 µM; FEPIhalf (concentration needed to reduce activity of efflux pump by 50%) ([9]; YEM-40 pCgBEN, fluconazole fixed at FLUhalf 2.8): >64; MIC of compound in the presence of fluconazole (+) (YEM 53 C. krusei): > 64 µg/mL; MIC of compound in the presence of fluconazole (+) (YEM 51 C. glabrata wt): 4 µg/mL; MIC of compound in the presence of fluconazole (+) (YEM 30 C. albicans wt): ≦0.03; FEPI MIC with fluconazole, 60% Inh (Aspergillus fumigatus): 0.25; FEPI MIC with fluconazole, 80% Inh (Aspergillus fumigatus): >64
4 | 5-Keto-8-deoxymilbemycin β1 [Compound 22] | <0.06 | 1 | > 64 | > 64 | ≦0.03 | > 64 | > 64 | > 64 | > 64 | > 64 | > 64 | > 64 | > 64 | > 64 | > 64 | >64 | >64 | ≦0.063 | ≦0.063 | >64 | FEPIhalf (concentration needed to reduce activity of efflux pump by 50%) [6]: 64; FEPIhalf (concentration needed to reduce activity of efflux pump by 50%) [7]: >64; FEPIhalf (concentration needed to reduce activity of efflux pump by 50%) [8]: >64; FEPIhalf (concentration needed to reduce activity of efflux pump by 50%) [9]: >64; MIC of compound in the presence of fluconazole (+) (YEM 53 C. krusei; [15]): 8 µg/mL; MIC of compound in the presence of fluconazole (+) (YEM 51 C. glabrata wt; [16]): > 64 µg/mL; MIC of compound in the presence of fluconazole (+) (YEM 30 C. albicans wt; [17]): ≦0.03; FEPI MIC with fluconazole, 60% Inh (Aspergillus fumigatus; [18]): >64; FEPI MIC with fluconazole, 80% Inh (Aspergillus fumigatus; [19]): >64
